Entries after “also recorded” stand apart in the source; their conditions may differ. No end group written: not given here.
Tests used:
Type in all cases: in vivo
BALB/c mice [1] = assay: Murine model of acute graft versus host disease, oral hBD-2 versus cyclosporine (Example 12)
Description: (§1) Treatment regime: 20 female BALB/c mice were irradiated with 4.5 Gy (2×498 sec) at intervals of at least 4 hours on day 0. Bone marrow was harvested: hind limbs harvested from 2 female WT C57BL/6 mice aseptically. Skeletal muscle was removed and epiphysis cut away. Lumen of bone flushed with PBS and cells pelleted and taken up. Harvest of T-cells: spleens from 2 female WT C57BL/6 mice were meshed through a […] cell strainer into a PBS filled dish. Cells were taken up in PBS and transferred into a 50 mL falcon tube and spun down. Cells were taken up in 1 mL PBS and 20 μL of CD4 microbead +20 μL CD8 microbeads per spleen added for incubation for 20 min at 4 degrees C. Cells were washed with PBS and applied to MACS separation in order to positively select CD4+ and CD8+ cells. Positively selected T-cells were counted and taken up. Transplantation: directly after the second irradiation, all WT BALB/c recipient mice were injected with 5×1.000.000 BM cells (50 μL) i.v. into the retroorbital venous plexus under isoflurane anesthesia. 20 BALB/c mice were treated with 1.2 mg of hBD2/kg BW/day (n=7); 50 mg cyclosporine/kg BW on days 0, 3, 6 and 9 (n=7) or 100 uL PBS per day vial oral gavage (n=6) from day 0-10.
The mice were weighed at regular intervals during the study and survival was monitored for 90 days.

BALB/c mice [2] = assay: Therapeutic intervention in murine house dust mite/Freund's complete adjuvant driven model of allergic asthma (Example 6); conditions: for Increase of airway resistance (AHR): vs HDM challenged vehicle
Description: Treatment regime: Female 7-10 weeks old BALB/c mice were randomly allocated into 6 study groups one day prior to study start and subcutaneously (SC) sensitized to house dust mite (100 μg HDM in 200 μL saline plus Freund's complete adjuvant in 0.9% saline). Mice were then intranasally (IN) challenged with HDM on day 14 (HDM 25 μg in 50 μL of saline). Dexamethasone was administered orally (1 mg/kg BID; 50 μL phosphate buffered saline (PBS)) on day 14. hBD-2 was administered IN or orally (1.7 mg/kg TID IN; 0.4 mg/kg TID IN; 0.4 mg/kg TID orally, 50 μL phosphate buffered saline) on day 14. The initial dose was administered 60 minutes prior to challenge, and the subsequent two doses approximately 6 hours apart (FIG. 3).
Airway inflammation: At 48 hours post challenge, bronchoalveolar lavage was performed washing the lungs with 3 volumes of cold PBS (0.4; 0.3 and 0.3 mL, total 1 mL). Total and differential leucocyte cell counts were determined on an automated haematological analyser Sysmex XT-2000iV.
Data are represented as airway resistance at […] methacholine and as dose responsive curves. Lung sampling for cytokine analysis: After completion of every BAL, lungs were removed from the thorax, snap frozen in liquid nitrogen and stored frozen at −80 degrees Celsius until analysis of cytokine concentration of IL-1β, TNF-α, IL-6, IL-10 and IFNγ by ELISA.

[3] = Therapeutic high fat diet model in diet-induced obese mice, weight and fat percentage (Example 2); conditions: HFD plus hBD-2 vs standard HFD
Text: The overall design of the study is shown in FIG. 1, lower panel, “Therapeutic study”. Mice and diets. The experiment elucidates the effect of hBD-2 and HD5 on the microbiota in diet-induced obese mice. A run-in period of 13 weeks where mice were fed a very HFD (60% energy from fat) preceded the intervention. Only mice meeting the criteria of a minimum of 12 gram weight gain (approximately 50% of initial bodyweight) during the run-in period were included in the final analyses. […] They were exposed to all experimental tests, but excluded from the analyses.
Treatment regimen. Before the intervention all mice were MR scanned. Cages of mice were allocated to experimental groups based on their fat mass. All subsequent measures were paired with data from the same mouse before the intervention. A LFD (low fat diet) reference group was running in parallel. As controls for the intervention 2 additional groups were included: a) very HFD and b) LFD. Experimental mice stayed on the very HFD during the intervention. The mice were on the experimental diet for 10 weeks. They were co-housed throughout the experiment, 4 mice per cage, 3 cages per group. All tests ran over 3 days, 1 cage per group per day.

BALB/c mice [4] = assay: Murine model of acute graft versus host disease following stem cell transplantation, oral hBD-2 (Example 11); conditions: for Intestinal T cell infiltration / Myeloid cell infiltration / Infiltration with CD45+ leucocytes: lamina propria; for Infiltration with CD45+ leucocytes: FACS analysis
Description: as §1, with “Bone” for “Treatment regime: 20 female BALB/c mice were irradiated with 4.5 Gy (2×498 sec) at intervals of at least 4 hours on day 0. Bone”, “CD4 microbead+20” for “CD4 microbead +20”, “anesthesia. 15” for “anesthesia. 20”, “BW/day in” for “BW/day (n=7); 50 mg cyclosporine/kg BW on days 0, 3, 6 and 9 (n=7) or”, “100 μL” for “100 uL”, “gavage” for “gavage (n=6)”
15 BALB/c mice received vehicle 100 μL PBS per day via oral gavage from day 0-10.
The mice were weighed daily for the initial 7 days and survival was monitored for 100 days.

[5] = hBD-2 intranasal, both doses, dexamethasone 1 mg/kg BID orally

In the case of “human beta defensin 2 (GIGDPVTCLKSGAICHPVFCPRRYKQIGTCGLPGTKCCKKP; ends and bridges not checked; cysteine pairing not given here; listed as Homo sapiens) [hBD-2]”, the Mortality (BALB/c mice [1]; 7 mice oral hBD-2 for 10 days, p=0.03) is reported as “statistically significant reduction of mortality”, the “Weight loss following bone marrow transplantation” value (BALB/c mice [1]; compared with the PBS treated mice) is reported as “lost statistically significantly less weight” and the “Animals that had died by day 90” value (BALB/c mice [1]; hBD2 1.2 mg/kg BW/day day 0-10 (n=7), cyclosporine 50 mg/kg BW on days 0, 3, 6 and 9 (n=7), PBS n=6, all but one died) is reported as 1. For the same substance, the “Total cell count in BALF” value (BALB/c mice [2]; 48 hours post challenge, hBD-2 intranasal, both doses (0.4 mg/kg/day TID and 1.7 mg/kg/day TID), dexamethasone 1 mg/kg BID orally) was “significantly inhibited total, neutrophil and macrophage cell counts”, the “Eosinophil count in BALF” value (BALB/c mice [2]; [5]) was “trend towards lowering of eosinophils” and the “Macrophage count in BALF” value (BALB/c mice [2]; [5]) was “significantly inhibited total, neutrophil and macrophage cell counts”. For the same substance, the “Neutrophil count in BALF” value (BALB/c mice [2]; [5]) was “significantly inhibited total, neutrophil and macrophage cell counts”, the “TNF-α level in lung tissue homogenate” value (BALB/c mice [2]; intranasal hBD-2) was “not significantly different from the control” and the “Decrease of pulmonary compliance” value (BALB/c mice [2]; intranasal hBD-2 TID on day 14) was “effectively inhibited”. The “Increase of airway resistance (AHR)” value (BALB/c mice [2]; intranasal hBD-2 TID on day 14) was “effectively inhibited increase of airway resistance”, the “Decrease of pulmonary compliance” value (BALB/c mice [2]; oral hBD-2 0.4 mg/kg TID on day 14) was “effectively inhibited” and the “Increase of airway resistance (AHR)” value (BALB/c mice [2]; oral on day 14: hBD-2 0.4 mg/kg TID, dexamethasone 1 mg/kg BID) was “effectively inhibited increase of airway resistance”. For the same substance, the “TNF-α level in lung tissue homogenate” value (BALB/c mice [2]; oral: hBD-2 0.4 mg/kg TID, dexamethasone 1 mg/kg BID, vs HDM/vehicle control) was “significantly reduced TNF-α”, the Weight gain ([3]; first 4 weeks post dietary intervention, p=0.07) was “tended to gain less weight the first 4 weeks post dietary intervention, although not significant” and the Weight gain ([3]; from week 4 to the end of the study period, p=0.82) was “gained similar weight as the standard HFD group”. For the same substance, the Mortality (BALB/c mice [4]; 15 mice oral hBD-2 for 10 days vs 15 mice PBS, p<0.0001) was “highly statistically significant reduction of mortality”, the “Share of treated mice that had died by day 35” value (BALB/c mice [4]; 15 mice, 1.2 mg/kg BW/day oral gavage day 0-10) was “less than 30%” and the “Mice that had died by day 35” value (BALB/c mice [4]; 15 mice, 1.2 mg/kg BW/day oral gavage day 0-10, all 15 vehicle mice had died by day 35) was 4. The “Mice still alive by day 100” value (BALB/c mice [4]; 15 mice, 1.2 mg/kg BW/day oral gavage day 0-10, p<0.0001) was 8, the “IL-1β from myeloid cells” value (BALB/c mice [4]; FACS analysis of the spleen) was “Reduced IL-1B production in myeloid cells; also recorded: reduction of IL-1β from myeloid cells” and the Neutrophils (BALB/c mice [4]; FACS analysis of the spleen) was “Reduced proportion of neutrophils; also recorded: reduced number of neutrophils”. For the same substance, the “Th1 cytokine production, IFN-γ” value (BALB/c mice [4]; FACS analysis of the spleen, CD4, CD8 and CD69+CD4 T cells) was “reduced Th 1 cytokine production; also recorded: reduced Th1 cytokine production”, the “Th1 cytokine production, TNF-α” value (BALB/c mice [4]; FACS analysis of the spleen, CD4 and CD8 T cells) was “reduced Th 1 cytokine production; also recorded: reduced Th1 cytokine production” and the Weight loss (BALB/c mice [4]; first 7 days following bone marrow transplantation) was “lost statistically significantly less weight”. For the same substance, the “Microarray analysis of colon samples” value (BALB/c mice [4]; hBD-2 treated group versus PBS) was “decreased inflammation, leucocyte and myeloid cell migration and tissue remodelling”, the “Intestinal T cell infiltration” value (BALB/c mice [4]) was “Reduction of intestinal T cell and myeloid cell infiltration” and the Myeloid cell infiltration (BALB/c mice [4]) was “Reduction of intestinal T cell and myeloid cell infiltration”. The “Infiltration with CD45+ leucocytes” value (BALB/c mice [4]) was “Reduced CD45+leucocyte cell migration”, the “Infiltration with CD45+ leucocytes” value (BALB/c mice [4]; listed as hBD2) was “reduced the infiltration” and the “Intestinal T cell infiltration” value (BALB/c mice [4]; listed as hBD2) was “reduced”. The Myeloid cell infiltration (BALB/c mice [4]; listed as hBD2) was “reduced”, the IL-6 concentration (BALB/c mice [4]; serum) was “reduction of TNF-α and IL-6 concentrations” and the IL-10 concentration (BALB/c mice [4]; serum) was “increased concentration of IL-10”. For the same substance, the TNF-α concentration (BALB/c mice [4]; serum) was “reduction of TNF-α and IL-6 concentrations”, the “Histology score of the colon” value (BALB/c mice [4]; vs PBS) was “statistically significant reduction of histology score; also recorded: highly statistically lower” and the “Histology score of the liver” value (BALB/c mice [4]; vs PBS) was “statistically significant reduction of histology score; also recorded: highly statistically lower”. The “Histology score of the small intestine” value (BALB/c mice [4]; vs PBS) was “statistically significant reduction of histology score; also recorded: highly statistically lower”.

— patent US20250009844A1, “MATURATION OF MUCOSAL DEFENSE AND GUT/LUNG FUNCTION IN THE PRETERM INFANT” (Novozymes A/S, priority 2017, published 2025)
